Reference: patent US20250122188A1, “MODULATORS OF THE INTEGRATED STRESS PATHWAY” (Calico Life Sciences LLC, priority 2016, published 2025)

Tested on: ATF4 luciferase reporter in HEK293T cells
Assay: ATF4-Luc assay, HEK293T cells carrying the ATF4 luciferase reporter (in vitro model of VWMD)
Format: cell-based
Settings: Homo sapiens, HEK-293T; HEK293T ATF4 luciferase reporter cells, 1 μg/mL tunicamycin, 7 hours; read-out: ATF4-Luc EC50
Procedure: In order to test exemplary compounds of the invention in a cellular context, a stable VWMD cell line was first constructed. The ATF4 reporter was prepared by fusing the human full-length ATF4 5′-UTR (NCBI Accession No. BC022088.2) in front of the firefly luciferase (FLuc) coding sequence lacking the initiator methionine as described in Sidrauski et al (eLife 2013). The construct was used to produce recombinant retroviruses using standard methods and the resulting viral supernatant was used to transduce HEK293T cells, which were then subsequently selected with puromycin to generate a stable cell line.
HEK293T cells carrying the ATF4 luciferase reporter were plated on polylysine coated 384-well plates (Greiner Bio-one) at 30,000 cells per well. Cells were treated the next day with 1 μg/mL tunicamycin and 200 nM of a compound of Formula (I) for 7 hours. Luminescence was measured using One Glo (Promega) as specified by the manufacturer. Cells were maintained in DMEM with L-glutamine supplemented with 10% heat-inactivated FBS (Gibco) and Antibiotic-Antimycotic solution (Gibco).

Compound | EC50 [nM]
O=C(COc1ccc(Cl)c(F)c1)NC12CCC(NC(=O)COc3ccc(C(F)(F)F)nc3)(CC1)[C@H](O)C2 (single isomer, unassigned) [Compound 302] | < 10
O=C(COc1ccc(Cl)c(F)c1)NC12CCC(NC(=O)COc3ccnc(C(F)(F)F)c3)(CC1)[C@@H](O)C2 (single isomer, unassigned) [Compound 318] | 10 to 50
O=C(COc1ccc(Cl)c(F)c1)NC12CCC(NC(=O)COc3ccc(C(F)(F)F)nc3)(CC1)[C@@H](F)C2 (single isomer, unassigned) [Compound 372] | 50 to 250
O=C(CCn1ncc(Cl)cc1=O)NC12CC(NC(=O)COc3ccc(Cl)c(F)c3)(C1)C2 [Compound 104, N-{3-[2-(4-chloro-3-fluorophenoxy)acetamido]bicyclo[1.1.1]pentan-1-yl}-3-(4-chloro-6-oxopyridazin-1(6H)-yl)propanamide] | 250 to 500000
O=C(COCCc1ccc(Cl)cc1)NC12CC(NC(=O)COc3ccc(Cl)c(F)c3)(C1)C2 [Compound 135, 2-(4-chloro-3-fluorophenoxy)-N-(3-{2-[2-(4-chlorophenyl)ethoxy]acetamido}-bicyclo[1.1.1]pentan-1-yl)acetamide] | 250 to 500000
Cc1cccc(CCOCC(=O)NC23CC(NC(=O)COc4ccc(Cl)c(F)c4)(C2)C3)c1 [Compound 136, 2-(4-chloro-3-fluorophenoxy)-N-(3-{2-[2-(3-methylphenyl)ethoxy]acetamido}-bicyclo[1.1.1]pentan-1-yl)acetamide] | 250 to 500000
N#Cc1cccc(COCC(=O)NC23CC(NC(=O)COc4ccc(Cl)c(F)c4)(C2)C3)c1 [Compound 138, 2-(4-chloro-3-fluorophenoxy)-N-(3-{2-[(3-cyanophenyl)methoxy]acetamido}-bicyclo[1.1.1]pentan-1-yl)acetamide] | 250 to 500000
N#Cc1ccc(COCC(=O)NC23CC(NC(=O)COc4ccc(Cl)c(F)c4)(C2)C3)cc1 [Compound 139, 2-(4-chloro-3-fluorophenoxy)-N-(3-{2-[(4-cyanophenyl)methoxy]acetamido}-bicyclo[1.1.1]pentan-1-yl)acetamide] | 250 to 500000
Cc1ccc(COCC(=O)NC23CC(NC(=O)COc4ccc(Cl)c(F)c4)(C2)C3)cc1 [Compound 144, 2-(4-chloro-3-fluorophenoxy)-N-(3-{2-[(4-methylphenyl)methoxy]acetamido}-bicyclo[1.1.1]pentan-1-yl)acetamide] | 250 to 500000
Cc1ccc(CCOCC(=O)NC23CC(NC(=O)COc4ccc(Cl)c(Cl)c4)(C2)C3)cc1 [Compound 154, 2-(3,4-dichlorophenoxy)-N-(3-{2-[2-(4-methylphenyl)ethoxy]acetamido}-bicyclo[1.1.1]pentan-1-yl)acetamide] | 250 to 500000
O=C(CCOCc1cccc(Cl)c1)NC12CC(NC(=O)COc3ccc(Cl)c(F)c3)(C1)C2 [Compound 163, N-{3-[2-(4-chloro-3-fluorophenoxy)acetamido]bicyclo[1.1.1]pentan-1-yl}-3-[(3-chlorophenyl)methoxy]propanamide] | 250 to 500000
O=C(COc1ccc(Cl)c(F)c1)NC12CC(NC(=O)OCCCc3cccc(Cl)c3)(C1)C2 [Compound 166, 3-(3-chlorophenyl)propyl {3-[2-(4-chloro-3-fluorophenoxy)acetamido]-bicyclo[1.1.1]pentan-1-yl}carbamate] | 250 to 500000
O=C(CCOc1cccc(Cl)c1)NC12CC(NC(=O)COc3ccc(Cl)c(Cl)c3)(C1)C2 [Compound 169, 3-(3-chlorophenoxy)-N-{3-[2-(3,4-dichlorophenoxy)acetamido]bicyclo-[1.1.1]pentan-1-yl}propanamide] | 250 to 500000
O=C(COc1ccc(Cl)c(Cl)c1)NC12CC(NC(=O)OCCCc3cccc(Cl)c3)(C1)C2 [Compound 174, 3-(3-chlorophenyl)propyl {3-[2-(3,4-dichlorophenoxy)acetamido]-bicyclo[1.1.1]pentan-1-yl}carbamate] | 250 to 500000
Cc1cc(Cl)ncc1OCC(=O)NC12CC(NC(=O)COc3ccc(Cl)c(F)c3)(C1)C2 [Compound 243, 2-(4-chloro-3-fluorophenoxy)-N-(3-{2-[(6-chloro-4-methylpyridin-3-yl)oxy]acetamido}bicyclo[1.1.1]pentan-1-yl)acetamide] | 250 to 500000
Cc1nc(F)ccc1OCC(=O)NC12CC(NC(=O)COc3ccc(Cl)c(F)c3)(C1)C2 [Compound 249, 2-(4-chloro-3-fluorophenoxy)-N-(3-{2-[(6-fluoro-2-methylpyridin-3-yl)oxy]acetamido}bicyclo[1.1.1]pentan-1-yl)acetamide] | 250 to 500000

Compound | EC50 [nM]
O=C(COc1ccc(Cl)c(F)c1)NC12CC(NC(=O)COc3cnc4cc[nH]c4c3)(C1)C2 [Compound 254, 2-(4-chloro-3-fluorophenoxy)-N-(3-{2-[(1H-pyrrolo[3,2-b]pyridin-6-yl)oxy]acetamido}bicyclo[1.1.1]pentan-1-yl)acetamide] | 250 to 500000
NCc1ccc(OCC(=O)NC23CC(NC(=O)COc4ccc(Cl)c(F)c4)(C2)C3)cn1 [Compound 259, 2-{[6-(aminomethyl)pyridin-3-yl]oxy}-N-{3-[2-(4-chloro-3-fluorophenoxy)acetamido]bicyclo[1.1.1]pentan-1-yl}acetamide] | 250 to 500000
N#Cc1cc(OCC(=O)NC23CC(NC(=O)COc4ccc5c(c4)OC(F)(F)O5)(C2)C3)ccn1 [Compound 270, 2-[(2-cyanopyridin-4-yl)oxy]-N-(3-{2-[(2,2-difluoro-2H-1,3-benzodioxol-5-yl)oxy]acetamido}bicyclo[1.1.1]pentan-1-yl)acetamide] | 250 to 500000
N#Cc1cc(OCC(=O)NC23CC(NC(=O)COc4ccc(Cl)c(F)c4)(C2)C3)ccn1 [Compound 277, 2-(4-chloro-3-fluorophenoxy)-N-(3-{2-[(2-cyanopyridin-4-yl)oxy]acetamido}bicyclo[1.1.1]pentan-1-yl)acetamide] | 250 to 500000
O=C(COCc1ccc(OC(F)F)nc1)NC12CC(NC(=O)COc3ccc(Cl)c(F)c3)(C1)C2 [Compound 279, 2-(4-chloro-3-fluorophenoxy)-N-[3-(2-{[6-(difluoromethoxy)pyridin-3-yl]methoxy}acetamido)bicyclo[1.1.1]pentan-1-yl]acetamide] | 250 to 500000
O=C(COc1ccc(Cl)c(F)c1)NC12CC(NCC(=O)c3ccc(Cl)c(F)c3)(C1)C2 [Compound 291, 2-(4-chloro-3-fluorophenoxy)-N-(3-{[2-(4-chloro-3-fluorophenyl)-2-oxoethyl]amino}bicyclo[1.1.1]pentan-1-yl)acetamide] | 250 to 500000
O=C(COc1ccc(Cl)c(F)c1)NC12CC(NC(=O)CC(=O)c3ccc(Cl)cc3)(C1)C2 [Compound 293, N-{3-[2-(4-chloro-3-fluorophenoxy)acetamido]bicyclo[1.1.1]pentan-1-yl}-3-(4-chlorophenyl)-3-oxopropanamide] | 250 to 500000
O=C(COc1ccc(Cl)c(F)c1)NC12CCC(NC(=O)COc3ccnn(CC(F)(F)F)c3=O)(CC1)C(O)C2 (stereo not shown) [Compound 333, 2-(4-chloro-3-fluorophenoxy)-N-[3-hydroxy-4-(2-{[3-oxo-2-(2,2,2-trifluoroethyl)-2,3-dihydropyridazin-4-yl]oxy}acetamido)bicyclo[2.2.2]octan-1-yl]acetamide] | 250 to 500000
O=C(COc1ccc(Cl)c(F)c1)NC12CCC(NCCOc3ccc(Cl)c(Cl)c3)(CC1)CC2O (stereo not shown) [Compound 337, 2-(4-chloro-3-fluorophenoxy)-N-(4-{[2-(3,4-dichlorophenoxy)ethyl]amino}-2-hydroxybicyclo[2.2.2]octan-1-yl)acetamide] | < 10
O=C(COc1ccc(Cl)c(F)c1)NC12CC(NC(=O)Cc3ccc(C(F)(F)F)nc3)(C1)C2 [Compound 342, 2-(4-chloro-3-fluorophenoxy)-N-(3-{2-[6-(trifluoromethyl)pyridin-3-yl]acetamido}bicyclo[1.1.1]pentan-1-yl)acetamide] | 250 to 500000
COc1ccc(/C=C/C(=O)NC23CC(NC(=O)COc4ccc(Cl)c(F)c4)(C2)C3)cc1 [Compound 347, (2E)-N-{3-[2-(4-chloro-3-fluorophenoxy)acetamido]bicyclo[1.1.1]pentan-1-yl}-3-(4-methoxyphenyl)prop-2-enamide] | 250 to 500000
O=C(/C=C/c1ccc(C(F)(F)F)nc1)NC12CC(NC(=O)COc3ccc(Cl)c(F)c3)(C1)C2 [Compound 351, (2E)-N-{3-[2-(4-chloro-3-fluorophenoxy)acetamido]bicyclo[1.1.1]pentan-1-yl}-3-[6-(trifluoromethyl)pyridin-3-yl]prop-2-enamide] | 250 to 500000
O=C(COc1ccc(Cl)c(F)c1)NC12CCC(NC(=O)COc3ccc(F)cc3)(CC1)[C@@H](O)C2 [Compound 354, 2-(4-chloro-3-fluorophenoxy)-N-{(3S)-4-[2-(4-fluorophenoxy)acetamido]-3-hydroxybicyclo[2.2.2]octan-1-yl}acetamide] | < 10
O=C(COc1ccc(Cl)c(F)c1)NC12CC(NC(=O)COc3ccnn3C3CC3)(C1)C2 [Compound 371, 2-(4-chloro-3-fluorophenoxy)-N-(3-{2-[(1-cyclopropyl-1H-pyrazol-5-yl)oxy]acetamido}bicyclo[1.1.1]pentan-1-yl)acetamide] | 250 to 500000
O=C(COc1ccc(Cl)c(F)c1)NC12CCC(NC(=O)COc3ccc(C(F)(F)F)nc3)(CC1)[C@@H](F)C2 [Compound 373, 2-(4-chloro-3-fluorophenoxy)-N-[(3S)-3-fluoro-4-(2-{[6-(trifluoromethyl)pyridin-3-yl]oxy}acetamido)bicyclo[2.2.2]octan-1-yl]acetamide] | 50 to 250
